Test: logP determination by reversed-phase HPLC (EEC Directive 79/831 Annex V.A8)
Excerpt: Die Messung der logP Werte erfolgte gemäß EEC Directive 79/831 Annex V.A8 durch HPLC (High Performance Liquid Chromatography) an reverser Phase Säulen (C 18), mit nachfolgenden Methoden: • ^[a] Die Bestimmung erfolgt bei pH 2.3 mit 0,1% wässriger Phosphorsäure und Acetonitril als Eluenten (linearer Gradient von 10 bis 95% Acetonitril). • ^[b] Die Bestimmung erfolgt mit LC-MS bei pH 2,7 mit 0,1 % wässriger Ameisensäure und Acetonitril als Eluenten (linearer Gradient von 10% bis 95% Acetonitril). • ^[c] Die Bestimmung erfolgt mit LC-MS bei pH 7,8 mit 0,001 M wässriger Ammoniumhydrogencarbonat-Lösung und Acetonitril als Eluenten (linearer Gradient von 10 % bis 95 % Acetonitril).
Die Eichung erfolgt mit unverzweigten Alkan-2-onen (mit 3 bis 16 Kohlenstoffatomen), deren logP-Werte bekannt sind (Bestimmung der logP-Werte anhand der Retentionszeiten durch lineare Interpolation zwischen zwei aufeinander folgenden Alkanonen). Die lambda-maX-Werte wurden an Hand der UV-Spektren von 200 bis 400 nm in den Absorptionsmaxima ermittelt.

[1] = aqueous ammonium hydrogen carbonate/acetonitrile, pH 7.8
[2] = method [a]: pH 2.3, 0,1% aqueous phosphoric acid and acetonitrile, linear gradient 10 to 95% acetonitrile
[3] = 0.1% aqueous phosphoric acid/acetonitrile, pH 2.3
[4] = method [c]: LC-MS, pH 7,8, 0,001 M aqueous ammonium hydrogen carbonate and acetonitrile, linear gradient 10 % to 95 % acetonitrile

Row | Structure (SMILES) | log p [2] | log p [4] | also measured
1 | Cc1cc(C(F)(C(F)(F)F)C(F)(F)F)ccc1NC(=O)c1cccc(I)c1C(=O)N[C@@H](C)CS(C)(=O)=O [compound 1] | 3,18 |  | chromatographic logP [1]: 3.2
2 | Cc1c(NC(=O)c2cccc(I)c2C(=O)N[C@@H](C)C[S+](C)[O-])ccc(C(F)(C(F)(F)F)C(F)(F)F)c1F (stereo partly shown) [compound 8] | 2,78^[a] |  | 
3 | CC[S+]([O-])C[C@H](C)NC(=O)c1c(I)cccc1C(=O)Nc1ccc(C(F)(C(F)(F)F)C(F)(F)F)c(F)c1C (stereo partly shown) [compound 9] | 2,97^[a] |  | 
4 | CSC[C@H](C)NC(=O)c1c(Cl)cccc1C(=O)Nc1ccc(C(F)(F)C(F)(F)F)c(F)c1C [compound 11] |  |  | log p (method [b]: LC-MS, pH 2,7, 0,1 % aqueous formic acid and acetonitrile, linear gradient 10% to 95% acetonitrile): 3,94^[b]
5 | CCS(=O)(=O)C[C@H](C)NC(=O)c1c(Cl)cccc1C(=O)Nc1ccc(C(F)(F)C(F)(F)F)c(Cl)c1C [compound 12] | 3,14^[a] |  | 
6 | Cc1c(NC(=O)c2cccc(Cl)c2C(=O)N[C@@H](C)CS(C)(=O)=O)ccc(C(F)(F)C(F)(F)F)c1F [compound 13] | 2,82^[a] |  | 
7 | CCS(=O)(=O)C[C@H](C)NC(=O)c1c(Cl)cccc1C(=O)Nc1ccc(C(F)(F)C(F)(F)F)c(F)c1C [compound 14] | 3,01^[a] |  | 
8 | CSC[C@H](C)NC(=O)c1c(Br)cccc1C(=O)Nc1ccc(C(F)(F)C(F)(F)F)c(F)c1C [compound 15] | 3,93^[a] |  | 
9 | Cc1c(NC(=O)c2cccc(Br)c2C(=O)N[C@@H](C)CS(C)(=O)=O)ccc(C(F)(F)C(F)(F)F)c1F [compound 16] | 2,86^[a] |  | 
10 | CSC[C@H](C)NC(=O)c1c(Br)cccc1C(=O)Nc1ccc(C(F)(C(F)(F)F)C(F)(F)F)c(F)c1C [compound 17] | 4,31^[a] |  | 
11 | CCSC[C@H](C)NC(=O)c1c(I)cccc1C(=O)Nc1ccc(C(F)(C(F)(F)F)C(F)(F)F)c(F)c1C [compound 19] | 4,71^[a] |  | 
12 | CCS(=O)(=O)C[C@H](C)NC(=O)c1c(I)cccc1C(=O)Nc1ccc(C(F)(C(F)(F)F)C(F)(F)F)c(F)c1C [compound 21] | 3,47^[a] |  | 
13 | CCS(=O)(=O)C[C@H](C)NC(=O)c1c(Br)cccc1C(=O)Nc1ccc(C(F)(F)C(F)(F)F)c(Cl)c1C [compound 22] | 3,19^[a] |  | 
14 | CSC[C@H](C)NC(=O)c1c(I)cccc1C(=O)Nc1ccc(C(F)(F)C(F)(F)F)c(F)c1C [compound 23] | 4,04^[a] |  | 
15 | Cc1c(NC(=O)c2cccc(I)c2C(=O)N[C@@H](C)CS(C)(=O)=O)ccc(C(F)(F)C(F)(F)F)c1F [compound 24] | 2,97^[a] |  | 
16 | CSC[C@H](C)NC(=O)c1c(I)cccc1C(=O)Nc1ccc(C(F)(C(F)(F)F)C(F)(F)F)c(F)c1C [compound 25] | 4,41^[a] |  | 
17 | CSC[C@H](C)NC(=O)c1c(I)cccc1C(=O)Nc1ccc(C(F)(F)C(F)(F)F)c(Cl)c1C [compound 26] | 4,2^[a] |  | 
18 | Cc1c(NC(=O)c2cccc(I)c2C(=O)N[C@@H](C)CS(C)(=O)=O)ccc(C(F)(C(F)(F)F)C(F)(F)F)c1F [compound 27] | 3,27^[a] |  | 
19 | CSC[C@H](C)NC(=O)c1c(Br)cccc1C(=O)Nc1ccc(C(F)(C(F)F)C(F)(F)F)cc1Br (stereo partly shown) [compound 29] | 3,81^[a] |  | 
20 | CCS(=O)(=O)C[C@H](C)NC(=O)c1c(Br)cccc1C(=O)Nc1ccc(C(F)(C(F)F)C(F)(F)F)cc1Br (stereo partly shown) [compound 30] |  |  | chromatographic logP [3]: 3.06
21 | Cc1c(NC(=O)c2cccc(I)c2C(=O)N[C@@H](C)C[S+](C)[O-])ccc(C(F)(F)C(F)(F)F)c1F (stereo partly shown) [compound 31] | 2,5^[a] |  | 

Row | Structure (SMILES) | log p [2] | log p [4] | also measured
22 | CCSC[C@H](C)NC(=O)c1c(I)cccc1C(=O)Nc1ccc(C(F)(C(F)(F)F)C(F)(F)Br)cc1C (stereo partly shown) [compound 32] | 4,68 |  | 
23 | CCSC[C@H](C)NC(=O)c1c(I)cccc1C(=O)Nc1ccc(C(F)(C(F)F)C(F)(F)F)cc1C (stereo partly shown) [compound 33] | 3,96^[a] 3,96^[c] | 3,96^[a] 3,96^[c] | 
24 | CCSC[C@H](C)NC(=O)c1c(I)cccc1C(=O)Nc1ccc(C(F)(C(F)F)C(F)(F)F)cc1Cl (stereo partly shown) [compound 34] |  |  | chromatographic logP [3]: 4.2; chromatographic logP [1]: 4.2
25 | CCSC[C@H](C)NC(=O)c1c(I)cccc1C(=O)Nc1ccc(C(C(F)F)C(F)(F)F)cc1C (stereo partly shown) [compound 35] | 3,63 | 3,62 | 
26 | CSC[C@H](C)NC(=O)c1c(I)cccc1C(=O)Nc1ccc(C(C(F)F)C(F)(F)F)cc1Br (stereo partly shown) [compound 37] | 3,51 | 3,54 | 
27 | CCSC[C@H](C)NC(=O)c1c(I)cccc1C(=O)Nc1ccc(C(C(F)F)C(F)(F)F)cc1Cl (stereo partly shown) [compound 38] | 3,76 | 3,79 | 
28 | CCSC[C@H](C)NC(=O)c1c(I)cccc1C(=O)Nc1ccc(C(C(F)F)C(F)(F)F)cc1Br (stereo partly shown) [compound 39] | 3,78 |  | chromatographic logP [1]: 3.8
29 | CCSC[C@H](C)NC(=O)c1c(I)cccc1C(=O)Nc1ccc(C(C(F)F)C(F)(F)F)cc1F (stereo partly shown) [compound 40] | 3,57^[a] 3,57^[c] | 3,57^[a] 3,57^[c] | 
30 | CCS(=O)(=O)C[C@H](C)NC(=O)c1c(I)cccc1C(=O)Nc1ccc(C(F)(C(F)F)C(F)(F)F)cc1Cl (stereo partly shown) [compound 41] | 3,12 | 3,18 | 
31 | C[C@@H](CS(C)(=O)=O)NC(=O)c1c(I)cccc1C(=O)Nc1ccc(C(C(F)F)C(F)(F)F)cc1Cl (stereo partly shown) [compound 42] | 2,69 | 2,72 | 
32 | C[C@@H](CS(C)(=O)=O)NC(=O)c1c(I)cccc1C(=O)Nc1ccc(C(C(F)F)C(F)(F)F)cc1Br (stereo partly shown) [compound 43] | 2,71 | 2,76 | 
33 | C[C@@H](CS(C)(=O)=O)NC(=O)c1c(I)cccc1C(=O)Nc1ccc(C(F)(C(F)F)C(F)(F)F)cc1F (stereo partly shown) [compound 44] | 2,72 | 2,76 | 
34 | C[C@@H](CS(C)(=O)=O)NC(=O)c1c(I)cccc1C(=O)Nc1ccc(C(C(F)F)C(F)(F)F)cc1F (stereo partly shown) [compound 45] |  | 2,54 | chromatographic logP (pH 2.3): 2.5
35 | CCS(=O)(=O)C[C@H](C)NC(=O)c1c(I)cccc1C(=O)Nc1ccc(C(C(F)F)C(F)(F)F)cc1Br (stereo partly shown) [compound 46] | 2,87 | 2,92 | 
36 | CCS(=O)(=O)C[C@H](C)NC(=O)c1c(I)cccc1C(=O)Nc1ccc(C(F)(C(F)F)C(F)(F)F)cc1F (stereo partly shown) [compound 47] | 2,89 | 2,94 | 
37 | CCS(=O)(=O)C[C@H](C)NC(=O)c1c(I)cccc1C(=O)Nc1ccc(C(C(F)F)C(F)(F)F)cc1F (stereo partly shown) [compound 48] | 2,65 | 2,69 | 
38 | Cc1cc(C(F)(C(F)F)C(F)(F)F)ccc1NC(=O)c1cccc(Cl)c1C(=O)N[C@@H](C)CS(C)(=O)=O (stereo partly shown) [compound 49] | 2,61 | 2,64 | 
39 | Cc1c(NC(=O)c2cccc(Cl)c2C(=O)N[C@@H](C)C[S+](C)[O-])ccc(C(C(F)(F)F)C(F)(F)F)c1F (stereo partly shown) [compound 51] |  | 2,41 | chromatographic logP (pH 2.3): 2.5
40 | Cc1cc(C(C(F)(F)F)C(F)(F)F)c(F)cc1NC(=O)c1cccc(Cl)c1C(=O)N[C@@H](C)C[S+](C)[O-] (stereo partly shown) [compound 52] | 2,58 | 2,51 | 
41 | Cc1cc(C(C(F)(F)F)C(F)(F)F)c(F)cc1NC(=O)c1cccc(Br)c1C(=O)N[C@@H](C)C[S+](C)[O-] (stereo partly shown) [compound 53] | 2,58 | 2,51 | 

Reference: patent publication EP2033515A1, “Method for improved utilisation of the production potential of transgenic plants” (Bayer CropScience AG, priority 2007, dated 2009)
